Laboratory results taken from PubChem BioAssay AID296 (DTP/NCI, 2004).
Several values for one entry are separate records, joined by “and”; a condition that tells them apart may be missing. Equal entries are not always repeated. Results filed as inconclusive are left out.

Test system: MX-1 breast xenograft, nude mice, tumor weight T/C
Test: NCI In Vivo Anticancer Drug Screen. Data for tumor model Human Mammary Carcinoma MX-1 Xenograft (intrarenal inoculation) in NU/NU Swiss (nude) mice
Details: endpoint: mean tumor weight change, higher = larger tumour
Procedure, shortened: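 Read-out: treated (T) over vehicle control (C) ratio of survival or tumor size. Dosing in animals carrying the transplanted tumor.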

[1] = dose: 300.0 mg/kg/injection, schedule: Q04DX003 (sc), vehicle: saline with Tween-80
[2] = dose: 600.0 mg/kg/injection, schedule: Q04DX003 (sc), vehicle: saline with Tween-80
[3] = dose: 1200.0 mg/kg/injection, schedule: Q04DX003 (sc), vehicle: saline with Tween-80
[4] = dose: 2400.0 mg/kg/injection, schedule: Q04DX003 (sc), vehicle: saline with Tween-80
[5] = dose: 150.0 mg/kg/injection, schedule: Q04DX003 (sc), vehicle: saline with Tween-80

COc1c(C=O)c2c(c(OC)c1OC)-c1ccc(OC)c(=O)cc1[C@@H](NC(C)=O)CC2
T/C (dose: 18.75 mg/kg/injection, schedule: Q04DX003 (sc), vehicle: Klucel (hydroxypropylcellulose) (HPC)): 20 % of control | T/C (dose: 37.5 mg/kg/injection, schedule: Q04DX003 (sc), vehicle: Klucel (hydroxypropylcellulose) (HPC)): 11 % of control

CC1=C2CC(C)(C)/C=C\C(=O)/C(C)=C\C3=C[C@H](C)C[C@]3(O2)C1=O
T/C (dose: 12.5 mg/kg/injection, schedule: Q04DX003 (sc), vehicle: Klucel (hydroxypropylcellulose) (HPC)): 84 % of control | T/C (dose: 25.0 mg/kg/injection, schedule: Q04DX003 (sc), vehicle: Klucel (hydroxypropylcellulose) (HPC)): 100 % of control | T/C (dose: 50.0 mg/kg/injection, schedule: Q04DX003 (sc), vehicle: Klucel (hydroxypropylcellulose) (HPC)): 82 % of control

CNC(=O)OCc1nc(SC)n(C)c1COC(=O)NC
T/C (dose: 50.0 mg/kg/injection, schedule: Q04DX003 (ip), vehicle: saline): 8 % of control | T/C (dose: 100.0 mg/kg/injection, schedule: Q04DX003 (ip), vehicle: saline): 3 % of control | T/C (dose: 200.0 mg/kg/injection, schedule: Q04DX003 (ip), vehicle: saline): -56 % of control

C=C[Si]12OCCN(CCO1)CCO2
T/C (dose: 300.0 mg/kg/injection, schedule: Q04DX003 (sc), vehicle: Klucel (hydroxypropylcellulose) (HPC)): 87 % of control | T/C (dose: 600.0 mg/kg/injection, schedule: Q04DX003 (sc), vehicle: Klucel (hydroxypropylcellulose) (HPC)): 79 % of control | T/C (dose: 1200.0 mg/kg/injection, schedule: Q04DX003 (sc), vehicle: Klucel (hydroxypropylcellulose) (HPC)): 106 % of control | T/C (dose: 2400.0 mg/kg/injection, schedule: Q04DX003 (sc), vehicle: Klucel (hydroxypropylcellulose) (HPC)): 89 % of control

C1CN(P2(N3CC3)=NP(N3CC3)(N3CC3)=NP(N3CC3)(N3CC3)=N2)CCO1 (configuration not stated)
T/C (dose: 12.5 mg/kg/injection, schedule: Q04DX003 (sc), vehicle: saline): 36 % of control | T/C (dose: 25.0 mg/kg/injection, schedule: Q04DX003 (sc), vehicle: saline): 9 % of control | T/C (dose: 50.0 mg/kg/injection, schedule: Q04DX003 (sc), vehicle: saline): -77 % of control and -68 % of control (2×) | T/C (dose: 100.0 mg/kg/injection, schedule: Q04DX003 (sc), vehicle: saline): -93 % of control

COC(C(=O)C(O)C(C)O)C1Cc2cc3cc(OC4CC(OC(C)=O)C(OC5CC(O)C(OC)C(C)O5)C(C)O4)cc(O)c3c(O)c2C(=O)C1OC1CC(OC2CC(OC3CC(C)(O)C(OC(=O)C(C)C)C(C)O3)C(O)C(C)O2)C(O)C(C)O1 (configuration not stated)
T/C (dose: 1.0 mg/kg/injection, schedule: Q04DX003 (sc), vehicle: saline with Tween-80): 47 % of control | T/C (dose: 1.5 mg/kg/injection, schedule: Q04DX003 (sc), vehicle: saline with Tween-80): 11 % of control and 26 % of control and 28 % of control | T/C (dose: 2.0 mg/kg/injection, schedule: Q04DX003 (sc), vehicle: saline with Tween-80): 49 % of control | T/C (dose: 4.0 mg/kg/injection, schedule: Q04DX003 (sc), vehicle: saline with Tween-80): 13 % of control | T/C (dose: 8.0 mg/kg/injection, schedule: Q04DX003 (sc), vehicle: saline with Tween-80): -79 % of control

C[CH2][Sn]([CH2]C)([O]S(C)(=O)=O)[O]S(C)(=O)=O
T/C (dose: 6.25 mg/kg/injection, schedule: Q04DX003 (sc), vehicle: saline with Tween-80): 83 % of control | T/C (dose: 12.5 mg/kg/injection, schedule: Q04DX003 (sc), vehicle: saline with Tween-80): 95 % of control | T/C (dose: 25.0 mg/kg/injection, schedule: Q04DX003 (sc), vehicle: saline with Tween-80): 95 % of control

O=C[C@@H](CO)O[C@H](C=O)n1cnc2c(=O)[nH]cnc21
T/C (dose: 100.0 mg/kg/injection, schedule: Q04DX003 (sc), vehicle: saline with Tween-80): 41 % of control | T/C (dose: 200.0 mg/kg/injection, schedule: Q04DX003 (sc), vehicle: saline with Tween-80): 39 % of control and 63 % of control | T/C [1]: 47 % of control

CNc1cccnc1/C=N/NC(N)=S
T/C [1]: 114 % of control | T/C [2]: 61 % of control | T/C [3]: 55 % of control | T/C [4]: 77 % of control

CC(=O)[C@]1(O)Cc2c(O)c3c(c(O)c2[C@@H](OC2CC(N)C(O)C(C)O2)C1)C(=O)c1c(O)cccc1C3=O (some centres not stated)
T/C (dose: 0.25 mg/kg/injection, schedule: Q01DX010 (sc), vehicle: saline): 167 % of control | T/C (dose: 0.5 mg/kg/injection, schedule: Q01DX010 (sc), vehicle: saline): 68 % of control

NC(=S)c1ncn(C2OC(CO)C(O)C2O)c1N (configuration not stated)
T/C (dose: 300.0 mg/kg/injection, schedule: Q04DX003 (sc), vehicle: suspension in saline): 50 % of control | T/C (dose: 600.0 mg/kg/injection, schedule: Q04DX003 (sc), vehicle: suspension in saline): 89 % of control | T/C (dose: 1200.0 mg/kg/injection, schedule: Q04DX003 (sc), vehicle: suspension in saline): 95 % of control | T/C (dose: 2400.0 mg/kg/injection, schedule: Q04DX003 (sc), vehicle: suspension in saline): 99 % of control

CS(=O)(=O)c1ncc(Br)cn1
T/C (dose: 25.0 mg/kg/injection, schedule: Q01DX010 (sc), vehicle: suspension in saline): 79 % of control | T/C (dose: 75.0 mg/kg/injection, schedule: Q04DX003 (sc), vehicle: saline with Tween-80): 98 % of control | T/C [5]: 121 % of control | T/C [1]: 119 % of control

Cc1c(N)nc(C(CC(N)=O)NCC(N)C(N)=O)nc1C(=O)NC(C(=O)NC(C)C(O)C(C)C(=O)NC(C(=O)NCCc1nc(-c2nc(C(=O)NCCCNC(C)c3ccccc3)cs2)cs1)C(C)O)C(OC1OC(CO)C(O)C(O)C1OC1OC(CO)C(O)C(OC(N)=O)C1O)c1cnc[nH]1 (configuration not stated)
T/C (dose: 2.0 mg/kg/injection, schedule: Q01DX010 (sc), vehicle: saline): 114 % of control | T/C (dose: 8.0 mg/kg/injection, schedule: Q01DX010 (sc), vehicle: saline): 92 % of control | T/C (dose: 16.0 mg/kg/injection, schedule: Q01DX010 (sc), vehicle: saline): 89 % of control

CC(/C=C/c1ccccc1)=Nc1ccccc1
T/C [5]: 71 % of control | T/C [1]: 83 % of control | T/C [2]: 69 % of control | T/C [3]: 93 % of control

O=C1NC(=O)/C(=C/C=C/c2ccccc2)S1
T/C [1]: 111 % of control | T/C [2]: 98 % of control | T/C [3]: 84 % of control | T/C [4]: 66 % of control

Cc1noc(N)c1N
T/C (dose: 300.0 mg/kg/injection, schedule: Q04DX003 (sc), vehicle: water): 102 % of control | T/C (dose: 600.0 mg/kg/injection, schedule: Q04DX003 (sc), vehicle: water): 97 % of control | T/C (dose: 1200.0 mg/kg/injection, schedule: Q04DX003 (sc), vehicle: water): 102 % of control | T/C (dose: 2400.0 mg/kg/injection, schedule: Q04DX003 (sc), vehicle: water): 92 % of control

CC1C=NNC1=O (configuration not stated)
T/C (dose: 100.0 mg/kg/injection, schedule: Q01DX010 (sc), vehicle: saline with Tween-80): 123 % of control | T/C (dose: 400.0 mg/kg/injection, schedule: Q01DX010 (sc), vehicle: saline with Tween-80): 62 % of control | T/C (dose: 800.0 mg/kg/injection, schedule: Q01DX010 (sc), vehicle: saline with Tween-80): 60 % of control

CN(C)/N=N/c1nc[nH]c1C(N)=O
T/C (dose: 100.0 mg/kg/injection, schedule: Q01DX010 (sc), vehicle: Klucel (hydroxypropylcellulose) (HPC)): 93 % of control | T/C (dose: 200.0 mg/kg/injection, schedule: Q01DX010 (sc), vehicle: Klucel (hydroxypropylcellulose) (HPC)): 48 % of control | T/C (dose: 400.0 mg/kg/injection, schedule: Q01DX010 (sc), vehicle: Klucel (hydroxypropylcellulose) (HPC)): 14 % of control

COc1cccc2c1C(=O)c1c(O)c3c(c(O)c1C2=O)CC(O)(C(=O)CO)CC3OC1CC(N)C(O)C(C)O1 (configuration not stated)
T/C (dose: 12.0 mg/kg/injection, schedule: Q01DX010 (sc), vehicle: saline): 90 % of control | T/C (dose: 24.0 mg/kg/injection, schedule: Q01DX010 (sc), vehicle: saline): 80 % of control | T/C (dose: 25.0 mg/kg/injection, schedule: Q01DX010 (sc), vehicle: saline): 78 % of control | T/C (dose: 37.5 mg/kg/injection, schedule: Q01DX010 (sc), vehicle: water): 281 % of control | T/C (dose: 48.0 mg/kg/injection, schedule: Q01DX010 (sc), vehicle: saline): 9 % of control | T/C (dose: 50.0 mg/kg/injection, schedule: Q01DX010 (sc), vehicle: saline): 22 % of control | T/C (dose: 75.0 mg/kg/injection, schedule: Q01DX010 (sc), vehicle: water): 229 % of control | T/C (dose: 96.0 mg/kg/injection, schedule: Q01DX010 (sc), vehicle: saline): 4 % of control | T/C (dose: 150.0 mg/kg/injection, schedule: Q01DX010 (sc), vehicle: water): 233 % of control | T/C (dose: 300.0 mg/kg/injection, schedule: Q01DX010 (sc), vehicle: water): 81 % of control
